Assay results taken from patent US20020088029A1, “Plant transformation methods” (priority 1998, published 2002).

Assays:
tobacco leaf discs = settings: silver nitrate present during co-cultivation; LBA4404(GIGUP) 10^9 cells/ml
maize embryos = test: Inoculation of maize embryos with LBA4404 with or without silver nitrate, callus initiation; format: cell-based
Description: Inhibition of Agrobacterium-induced programmed cell death Preparation of tissues for inoculation with Agrobacterium: Immature embryos (1.2 to 2.2 mm in length) are aseptically excised 14-15 days after pollination from surface-sterilized, greenhouse-grown ears and plated scutellum up on callus initiation medium, 2DG4+5 mg/l chloramben (2DG4-5Chl).
Immature embryos are sterilized as described above and plated on callus initiation medium (2DG4-5Chl) and cultured therein for 1 to 7 days. The resulting tissue is used as samples for inoculation.
Agrobacterium is grown for 3 days on YP medium (5 g/l yeast extract, 10 g/l peptone, 5 g/l NaCl, 15 g/l agar, pH 6.8) supplemented with 50 mg/l spectinomycin and 10 mg/l tetracycline. Bacteria are collected with a loop and suspended in N6 liquid medium at a density ranging from 10^9 to 5 10^9 cells/ml. Agrobacterium cells can also be collected from an overnight culture in YP medium and resuspended in N6 liquid medium.
Maize tissues prepared as described above are inoculated with Agrobacterium. […] Tissues are also inoculated with a 5 μl drop 10^9 to 5×10^9 cells/ml of an Agrobacterium suspension placed on the top of the tissue.

maize type I callus = test: Inoculation of maize type I callus with or without silver nitrate, survival of tissues; format: cell-based; settings: ½ month old type I callus, co-inoculation 2DG4 + AgNO3, transfer 2DG4 + AgNO3 + Cef, 2 weeks
cell line HE/89 = test: DNA fragmentation (DNA ladders) in maize cells inoculated with Agrobacterium; format: cell-based, Zea mays L.; settings: HE/89 cells inoculated with Agrobacterium, agent added
Description: In order to determine the mechanism of cell death induced by Agrobacterium in maize tissues, genomic DNA is extracted from plant suspension cells harvested 24 or 48 hours after inoculation with Agrobacterium. Exposure to Agrobacterium causes DNA fragmentation in both maize lines, with a pattern characteristic of internucleosomal fragmentation, which is considered an early hallmark of programmed cell death. […] Furthermore, maize cells undergoing programmed cell death could not induce cell death of fresh maize embryogenic tissues.
Further evidence for Agrobacterium inducing DNA fragmentation is obtained by investigating the sensitivity of the process to Zn^2+ and Ca^2+. […] These characteristics are fully consistent with the effect of these divalent cations on the endogenous endonucleases responsible for DNA cleavage during apoptosis in animal system. The intensity of the ladder also is decreased by addition of cycloheximide, evidence that the process requires de novo gene expression. […] Fragmentation of DNA during apoptosis is also detected in situ by reagents that react with the exposed hydroxyls on the nucleosome units. 12 day old maize embryos from a proprietary elite line of Lancaster parentage are inoculated with LBA4404 and plated on DG4 medium supplemented with chloramben. Koziel, M.G., & al. 1993. Bio/Technology 11: 194-200. Apoptotic cells are detected by in situ staining with TACS-1 kit (Trevigen), which involves end labeling the DNA fragments by the klenow enzyme using dNTP conjugated to a detectable marker, giving a dark insoluble precipitate indicative of genomic fragmentation. Cullivier, O., Pirianov, G., Kleuser, B., Vanek, P.G., Coso, O.A., Gutking, J.S. and Spiegel, S. (1996) Nature 381, 800-803. Embryos are soaked in 3.7% formadehyde solution and processed as described by the manufacturer. To detect genomic DNA cleavage in situ, fixed embryos are treated with the TACS-1 kit. Fixed cross-sections are first treated with proteinase K for 5 min at room temperature and then dipped for 5 min into 2% hydrogen peroxide to remove endogenous peroxidase. […]

[1] = system: HE/89 maize friable embryogenic callus
Description: The following experiments employ maize inbred lines (Zea mays L.) HE/89 and a line here designated as Elite 1. […] Suspension culture of Elite 1 is initiated from friable embryogenic callus selected from immature embryos. The HE/89 line is grown in a modified liquid N6 medium amended with 500 mg/l Bacto tryptone, 30 g/l sucrose and 0.5 mg/l 2,4-dichlorophenoxy acetic acid (2,4-D) (N6M). The Elite 1 line is grown in N6 liquid medium (Chu et al., 1975) supplemented with 30 g/l sucrose and 2 mg/l 2,4-D (2N63S). The Nicotiana tabacum cell line NT-1 grown in Murashige and Skoog medium supplemented with 2 mg/l of 2,4-D and sucrose (30 g/l) (MS3S) is used as an Agrobacterium-susceptible control. Suspension cultures are maintained in liquid medium on a rotary shaker (120 rpm) and are subcultured every 7 days.
Bacteria are grown in YP medium (5 g/L yeast extract, 10 g/l peptone, 5 g/l NaCl, pH 6.8) for 24 hr at 28° C. […]
Friable embryogenic callus of HE/89 maize and of a proprietary elite inbred maize maintained in liquid medium are incubated with Agrobacterium for 10 min, 1 hr, 24 hr or 48 hrs prior to transfer to cefotaxim-containing medium. […] The presence or absence of necrosis is scored 2, 4 and 7 days after inoculation and the relative intensity of necrosis is expressed as follow: +, rare formation of necrosis; ++, weak necrosis; +++, strong necrosis; ++++, very strong necrosis.

`O=[N+]([O-])[O-].[Ag+]` [AgNO3, silver nitrate] was tested, and the “GUS activity in tobacco leaves (Agrobacterium virulence)” value (tobacco leaf discs) was “No significant decrease”, the “embryos able to produce embryogenic calli” value (maize embryos; embryos plated on medium containing silver nitrate after Agrobacterium inoculation) was “About 50%” and the “Score (callus initiation)” value (maize embryos; no pretreatment, co-inoculation 2DG4, transfer 2DG4 + AgNO3 + Cef, LBA4404 (GIGUP) 10^9 cells/ml, two weeks after inoculation) was 30%. The “Score (survival of tissues)” value (maize type I callus; pretreatment 2DG4 + AgNO3) was 95% and the “Score (survival of tissues)” value (maize type I callus; pretreatment 2DG4) was 75%.

For `[Ca+2]` [Ca^2+], the “intensity of DNA ladders (genomic fragmentation)” value (“intensity of DNA ladders” for short) (cell line HE/89) was “increased the intensity of DNA ladders”.

For `[Zn+2]` [Zn^2+], the “intensity of DNA ladders” value (cell line HE/89) was “markedly reduced genomic fragmentation”.

`CO/N=C(\C(=O)N[C@@H]1C(=O)N2C(C(=O)O)=C(COC(C)=O)CS[C@H]12)c1csc(N)n1` [cefotaxime] was tested, and the “necrosis of maize tissue” value [1] was “does not cause the maize tissue to become necrotic”.

`C[C@@H]1C[C@@H]([C@H](O)CC2CC(=O)NC(=O)C2)C(=O)[C@@H](C)C1` [cycloheximide] was tested, and the “intensity of DNA ladders” value (cell line HE/89) was “decreased”.
